Measurements reported in PMC6152127, “Facile Synthesis of Novel Coumarin Derivatives, Antimicrobial Analysis, Enzyme Assay, Docking Study, ADMET Prediction and Toxicity Study” (Molecules : A Journal of Synthetic Chemistry and Natural …, 2017).
Converted amounts (≈) assume the structure as drawn.

Experiments:
[1] = system: Aspergillus flavus (NCIM-539); assay: In vitro antifungal activity, MIC, agar method (CLSI); type: cell-based; conditions: NCIM539, average of three readings
Protocol: (§1) The newly synthesized 3-((dicyclohexylamino)(substituted phenyl/heteryl)methyl)-4-hydroxy-2H-chromen-2-one derivatives 4a–o were screened for their in vitro antifungal activity against different yeast and filamentous fungal pathogens. […] Dimethyl sulfoxide (DMSO) was used as solvent control.
(§2) All the synthesized compounds were screened for their in vitro antifungal and antibacterial activity. The antibacterial activity was evaluated against three human pathogenic bacterial strains: Escherichia coli (NCIM-2256), Bacillus subtilis (NCIM-2063) and Staphylococcus aureus (NCIM-2901). The antifungal activity was evaluated against seven human pathogenic fungal strains: Candida albicans (NCIM-3471), Candida glabrata (NCYC-388), Fusarium oxysporum (NCIM-1332), Aspergillus fumigates (NCIM-902), Aspergillus flavus (NCIM-539), Aspergillus niger (NCIM-1196) and Cryptococcus neoformans (NCIM-576), which are often encountered clinically. […] Minimum inhibitory concentration (MIC) values were determined as per CLSI guidelines. Dimethyl sulfoxide (DMSO) was used as solvent control.
(§3) Antifungal activity was determined as per CLSI (formerly, NCCLS) guidelines. […] The medium yeast nitrogen base was dissolved in phosphate buffer pH 7 and it was autoclaved at 110 °C for 10 min. With each set a growth control without the antifungal agent and solvent control DMSO were included. The fungal strains were freshly sub cultured on to Sabouraud dextrose agar (SDA) and incubated at 25 °C for 72 h. The fungal cells were suspended in sterile distilled water and diluted to get 10^5 cells/mL. Ten μL of the standardized suspension was inoculated onto the control plates and the media incorporated with the antifungal agents. The inoculated plates were incubated at 25 °C for 48 h. The readings were taken at the end of 48 h and 72 h. The MIC was the lowest concentration of drug preventing growth of macroscopically visible colonies on drug containing plates when there was visible growth on the drug free control plates.

[2] = system: Aspergillus fumigates (NCIM-902); assay: as above; type: cell-based; conditions: NCIM902, average of three readings
Protocol: as §1, §2, §3

[3] = system: Aspergillus niger (NCIM-1196); assay: as above; type: cell-based; conditions: NCIM1196, average of three readings
Protocol: as §1, §2, §3

[4] = system: Candida albicans (NCIM-3471); assay: as above; type: cell-based; conditions: NCIM3471, average of three readings
Protocol: as §1, §2, §3

[5] = system: Candida glabrata (NCYC-388); assay: as above; type: cell-based; conditions: Nakaseomyces glabratus; average of three readings
Protocol: as §1, §2, §3

[6] = system: Cryptococcus neoformans (NCIM-576); assay: as above; type: cell-based; conditions: NCIM576, average of three readings
Protocol: as §1, §2, §3

[7] = system: Fusarium oxysporum (NCIM-1332); assay: as above; type: cell-based; conditions: NCIM1332, average of three readings
Protocol: as §1, §2, §3

[8] = system: Bacillus subtilis (NCIM-2063); assay: In vitro antibacterial activity, MIC; type: cell-based; conditions: Bacillus subtilis, NCIM2063; average of three readings
Protocol: (§4) The newly synthesized compounds 4a–o were screened for their in vitro antibacterial activity against the three different bacterial strains. Minimum inhibitory concentration (MIC) values for antibacterial activity were determined by standard agar method using Ampicillin as standard drug. Dimethyl sulfoxide (DMSO) was used as solvent control. […] Compound 4e bearing a 2,4-difluoro group on the phenyl ring was 48 µg/mL for E. coli, 50 µg/mL for B. subtilis and 52 µg/mL for S. aureus.
(§5) All the synthesized compounds were screened for their in vitro antifungal and antibacterial activity. The antibacterial activity was evaluated against three human pathogenic bacterial strains: Escherichia coli (NCIM-2256), Bacillus subtilis (NCIM-2063) and Staphylococcus aureus (NCIM-2901). The antifungal activity was evaluated against seven human pathogenic fungal strains: Candida albicans (NCIM-3471), Candida glabrata (NCYC-388), Fusarium oxysporum (NCIM-1332), Aspergillus fumigates (NCIM-902), Aspergillus flavus (NCIM-539), Aspergillus niger (NCIM-1196) and Cryptococcus neoformans (NCIM-576), which are often encountered clinically. Miconazole was used as standard drug. Minimum inhibitory concentration (MIC) values were determined as per CLSI guidelines. Dimethyl sulfoxide (DMSO) was used as solvent control.
(§6) All the synthesized compounds 4a–o were screened for their in vitro antibacterial activity. Minimum inhibitory concentration (MIC) values were determined using method recommended by National Committee for Clinical Laboratory Standards (NCCLS). In vitro antibacterial activities of the synthesized compounds 4a–o were tested in Nutrient Broth (NB) for bacteria by the two fold serial dilution method. Seeded broth (broth containing microbial spores) was prepared in NB from 24 h old bacterial cultures on nutrient agar (Hi-media) at 37± 1 °C. The bacterial suspension was adjusted with sterile saline to a concentration of 1× 10^−4–10^−5 C.F.U. The synthesized compounds and standard drug Ampicillin were prepared by two fold serial dilutions to obtain the required concentrations of 400, 200, 100, 50, 25, 12.5, 6.25 and 3.13 μg/mL. The tubes were incubated in BOD incubators at 37± 1 °C for bacteria. The MICs were recorded by visual observations after 24 h (for bacteria) of incubation.

[9] = system: Escherichia coli (NCIM-2256); assay: In vitro antibacterial activity, MIC; type: cell-based; conditions: Escherichia coli, NCIM2256; average of three readings
Protocol: as §4, §5, §6

[10] = system: Staphylococcus aureus (NCIM-2901); assay: In vitro antibacterial activity, MIC; type: cell-based; conditions: Staphylococcus aureus, NCIM2901; average of three readings
Protocol: as §4, §5, §6

Structure (SMILES) | MIC [1] [µg/mL] | MIC [2] [µg/mL] | MIC [3] [µg/mL] | MIC [4] [µg/mL] | MIC [5] [µg/mL] | MIC [6] [µg/mL] | MIC [7] [µg/mL] | MIC [8] [µg/mL] | MIC [9] [µg/mL] | MIC [10] [µg/mL] | melting point [°C]
O=c1oc2ccccc2c(O)c1C(c1ccccc1)N(C1CCCCC1)C1CCCCC1 (stereo not shown) [Compound 4a, 3-((Dicyclohexylamino)(phenyl)methyl)-4-hydroxy-2H-chromen-2-one] | 38 (≈ 88 µM) | 84 (≈ 195 µM) | 43 (≈ 99.6 µM) | 66 (≈ 153 µM) | 58 (≈ 134 µM) | 54 (≈ 125 µM) | 55 (≈ 127 µM) | 68 (≈ 158 µM) | 70 (≈ 162 µM) | 65 (≈ 151 µM) | 112 to 114
O=c1oc2ccccc2c(O)c1C(c1ccc(O)cc1)N(C1CCCCC1)C1CCCCC1 (stereo not shown) [Compound 4i, 3-((Dicyclohexylamino)(4-hydroxyphenyl)methyl)-4-hydroxy-2H-chromen-2-one] | 25 (≈ 55.9 µM) | 42 (≈ 93.8 µM) | 28 (≈ 62.6 µM) | 32 (≈ 71.5 µM) | 35 (≈ 78.2 µM) | 24 (≈ 53.6 µM) | 35 (≈ 78.2 µM) | 66 (≈ 147 µM) | 64 (≈ 143 µM) | 67 (≈ 150 µM) | 128 to 130
O=c1oc2ccccc2c(O)c1C(c1ccccc1O)N(C1CCCCC1)C1CCCCC1 (stereo not shown) [Compound 4j, 3-((Dicyclohexylamino)(2-hydroxyphenyl)methyl)-4-hydroxy-2H-chromen-2-one] | 32 (≈ 71.5 µM) | 55 (≈ 123 µM) | 30 (≈ 67 µM) | 46 (≈ 103 µM) | 47 (≈ 105 µM) | 35 (≈ 78.2 µM) | 38 (≈ 84.9 µM) | 72 (≈ 161 µM) | 68 (≈ 152 µM) | 72 (≈ 161 µM) | 130 to 132
O=c1oc2ccccc2c(O)c1C(c1ccco1)N(C1CCCCC1)C1CCCCC1 (stereo not shown) [Compound 4o, 3-((Dicyclohexylamino)(furan-2-yl)methyl)-4-hydroxy-2H-chromen-2-one] | 46 (≈ 109 µM) | 65 (≈ 154 µM) | 49 (≈ 116 µM) | 56 (≈ 133 µM) | 55 (≈ 130 µM) | 48 (≈ 114 µM) | 55 (≈ 130 µM) | 74 (≈ 176 µM) | 66 (≈ 157 µM) | 70 (≈ 166 µM) | 148 to 150

Molecules with a lower MIC [1], results first:

MIC [1] [µg/mL] | MIC [2] [µg/mL] | MIC [3] [µg/mL] | MIC [4] [µg/mL] | MIC [5] [µg/mL] | MIC [6] [µg/mL] | MIC [7] [µg/mL] | MIC [8] [µg/mL] | MIC [9] [µg/mL] | MIC [10] [µg/mL] | melting point [°C] | Structure (SMILES)
15 (≈ 30.5 µM) | 36 (≈ 73.2 µM) | 12 (≈ 24.4 µM) | 25 (≈ 50.9 µM) | 28 (≈ 57 µM) | 12 (≈ 24.4 µM) | 28 (≈ 57 µM) | 54 (≈ 110 µM) | 56 (≈ 114 µM) | 54 (≈ 110 µM) | 140 to 142 | CCOc1cc(C(c2c(O)c3ccccc3oc2=O)N(C2CCCCC2)C2CCCCC2)ccc1O (stereo not shown) [Compound 4l, 3-((Dicyclohexylamino)(3-ethoxy-4-hydroxyphenyl)methyl)-4-hydroxy-2H-chromen-2-one]
14 (≈ 30 µM) | 30 (≈ 64.4 µM) | 15 (≈ 32.2 µM) | 30 (≈ 64.4 µM) | 32 (≈ 68.7 µM) | 15 (≈ 32.2 µM) | 34 (≈ 73 µM) | 50 (≈ 107 µM) | 52 (≈ 112 µM) | 54 (≈ 116 µM) | 120 to 122 | O=c1oc2ccccc2c(O)c1C(c1ccc(Cl)cc1)N(C1CCCCC1)C1CCCCC1 (stereo not shown) [Compound 4b, 3-((4-Chlorophenyl)(dicyclohexylamino)methyl)-4-hydroxy-2H-chromen-2-one]
12 (≈ 28.8 µM) | 35 (≈ 84.1 µM) | 12 (≈ 28.8 µM) | 25 (≈ 60.1 µM) | 25 (≈ 60.1 µM) | 12 (≈ 28.8 µM) | 25 (≈ 60.1 µM) | – | – | – | – | Clc1ccc(COC(Cn2ccnc2)c2ccc(Cl)cc2Cl)c(Cl)c1 (stereo not shown) [Miconazole, reference compound]
